Assay in all cases: in vitro antibacterial activity, two-fold serial agar dilution in Mueller-Hinton agar (MIC)
Holding throughout (assay type): cell-based

For one assay, the system named is X. moltophilia. The following applies: read-out: Geometric mean of MIC. From the text: (§1) Table 3 lists the in vitro antibacterial activity of several representative compounds of the invention. The activity has been evaluated in terms of minimum inhibitory concentrations (MIC's) by a standard two-fold serial agar dilution method in Mueller-Hinton agar. The values are in geometric means of MIC's against the strains tested in each group. The activity of the known compound ceftazidime is also given for comparison.

In another assay the test system is P. cepacia. The following applies: Burkholderia cepacia; Pc, 2 strains; read-out: Geometric mean of MIC.
Text: as §1

The next assay concerns PCresistant S. aureus. To be noted: Staphylococcus aureus; Gp-Ib, 5 strains, penicillin-resistant S. aureus; read-out: Geometric mean of MIC.
Text: as §1
GpIb: PCresistant S. aureus

Assay [1] deals with CETsensitive E. coli (3) and Kl. pneumoniae (2). The following applies: Escherichia coli, read-out: Geometric mean of MIC.
Text: as §1
GnIb: CETsensitive E. coli (3) and Kl. pneumoniae (2)

The test system of assay [2] is Ceftazidimemoderately resistant P. aeruginosa. To be noted: Pseudomonas aeruginosa, read-out: Geometric mean of MIC.
Text: as §1
Pa (MR): Ceftazidimemoderately resistant P. aeruginosa

The test system of assay [3] is Penicillin (PC)sensitive S. aureus. To be noted: Staphylococcus aureus, Gp-Ia, 5 strains, read-out: Geometric mean of MIC.
Text: as §1
GpIa: Penicillin (PC)sensitive S. aureus

Assay [4] deals with M. morganii (1), Ent. cloacae (2) and Ser. marcesens (2). To be noted: Morganella morganii, read-out: Geometric mean of MIC.
Text: as §1
GnII: M. morganii (1), Ent. cloacae (2) and Ser. marcesens (2)

For assay [5], the system named is Ceftazidimesensitive P. aeruginosa. To be noted: Pseudomonas aeruginosa, read-out: Geometric mean of MIC.
Text: as §1
Pa (S): Ceftazidimesensitive P. aeruginosa

Assay [6] has as its system Ceftazidimehighly resistant P. aeruginosa. To be noted: Pseudomonas aeruginosa; Pa (HR), 8 strains, ceftazidime highly resistant; read-out: Geometric mean of MIC.
Text: as §1
Pa (HR): Ceftazidimehighly resistant P. aeruginosa

The test system of assay [7] is Cephalothin (CET)sensitive E. coli (2 strains), Kl. pneumoniae (1) and Pr. mirabilis (2). To be noted: Gn-Ia, 5 strains, read-out: Geometric mean of MIC.
Text: as §1
GnIa: Cephalothin (CET)sensitive E. coli (2 strains), Kl. pneumoniae (1)

The mark [8] stands for this setting: Pa (S), 10 strains, ceftazidime-sensitive.
Where [9] appears, read: Pa (MR), 8 strains, ceftazidime moderately resistant.

Each structure is given as a SMILES string. ≈ marks a conversion by molar mass, not a printed value. Like-named read-outs stand apart in the source and are kept apart here.

Take `CC(C)(O/N=C(\C(=O)NC1C(=O)N2C(C(=O)O)=C(Cn3cnc4cc(O)c(O)cc43)CS[C@H]12)c1csc(N)n1)C(=O)O` (some centres unmarked) [Ia, 7-[(Z)-2-(2-Aminothiazol-4-yl)-2-(1-carboxy-1-methylethoxyimino)acetamido]-3-(5,6-dihydroxybenzimidazol-1-yl)methyl-3-cephem-4-carboxylic acid]: the MIC – broadly, the lowest concentration that inhibits growth of the organism – in the assay on X. moltophilia (Xm, 4 strains) was 3.1 µg/mL (≈ 5.02 µM); in the assay on P. cepacia, 12.5 µg/mL (≈ 20.2 µM); with PCresistant S. aureus, 50 µg/mL (≈ 81 µM); in [1], 0.8 µg/mL (≈ 1.3 µM); in assay [2] it was 0.47 µg/mL (≈ 0.761 µM); in assay [3], 50 µg/mL (≈ 81 µM). Further, the MIC in [4] (Gn-II, 5 strains) came out at 1.6 µg/mL (≈ 2.59 µM); in assay [5] (setting [8]), 0.14 µg/mL (≈ 0.227 µM); in assay [6] it was 0.37 µg/mL (≈ 0.599 µM); in [7], 0.61 µg/mL (≈ 0.988 µM).

As to `CC(C)(O/N=C(\C(=O)NC1C(=O)N2C(C(=O)O)=C(Cn3ccc4ccc(O)c(=O)c-4c3)CS[C@H]12)c1csc(N)n1)C(=O)O` (some centres unmarked) [Ib, 7-[(Z)-2-(2-Aminothiazol-4-yl)-2-(1-carboxy-1-methylethoxyimino)acetamido]-3-(2,8-dihydro-7-hydroxy-8-oxo-isoquinolin-2-yl)methyl-3-cephem-4-carboxylic acid], the MIC in the assay with X. moltophilia (Xm, 4 strains) is 12.5 µg/mL (≈ 19.9 µM); in the assay with P. cepacia it was 8.9 µg/mL (≈ 14.2 µM); in the assay with PCresistant S. aureus it was more than 100 µg/mL; in assay [1], 0.8 µg/mL (≈ 1.27 µM); in [2] (setting [9]), 2.9 µg/mL (≈ 4.61 µM); in assay [3] it was 100 µg/mL (≈ 159 µM). Also, the MIC in assay [4] (Gn-II, 5 strains) was found to be 2.4 µg/mL (≈ 3.82 µM); in assay [5] it was 1.2 µg/mL (≈ 1.91 µM); in assay [6], 2.6 µg/mL (≈ 4.14 µM); in assay [7], 0.6 µg/mL (≈ 0.954 µM).

Turning to `CC(C)(O/N=C(\C(=O)NC1C(=O)N2C(C(=O)O)=C(Cn3cc4cc(O)c(=O)cc-4cn3)CS[C@H]12)c1csc(N)n1)C(=O)O` (some centres unmarked) [Ic, 7-[(Z)-2-(2-Aminothiazol-4-yl)-2-(1-carboxy-1methylethoxyimino)acetamido]-3-(2,6-dihydro-7-hydroxy-6-oxophthalazin-2-yl)methyl-3-cephem-4-carboxylic acid], the MIC with X. moltophilia (Xm, 4 strains) amounted to 6.3 µg/mL (≈ 10 µM); in the assay on P. cepacia, 0.57 µg/mL (≈ 0.905 µM); in the assay with PCresistant S. aureus it was 33 µg/mL (≈ 52.4 µM); in assay [1], 0.033 µg/mL (≈ 0.0524 µM); in assay [2] (setting [9]), 0.37 µg/mL (≈ 0.588 µM); in assay [3], 25 µg/mL (≈ 39.7 µM). For the same compound, the MIC in assay [4] (Gn-II, 5 strains) turned out to be 0.4 µg/mL (≈ 0.635 µM); in assay [5] (setting [8]) it was 0.033 µg/mL (≈ 0.0524 µM); in assay [6] it was 0.73 µg/mL (≈ 1.16 µM); in [7], 0.11 µg/mL (≈ 0.175 µM).

`C[n+]1cn(CC2=C(C(=O)[O-])N3C(=O)C(NC(=O)C(=NOC(C)(C)C(=O)O)c4csc(N)n4)C3SC2)c2cc(O)c(O)cc21` (centres unmarked) [Id, 7-[(Z)-2-(2-Aminothiazol-4-yl)-2-(1-carboxy-1-methylethoxyimino)acetamido]-3-(5,6-dihydroxy-3-methylbenzimidazol-3-io-1-yl)methyl-3-cephem-4-carboxylate]: the MIC in the assay on X. moltophilia (Xm, 4 strains) turned out to be 0.8 µg/mL (≈ 1.27 µM); in the assay with P. cepacia, 3.2 µg/mL (≈ 5.07 µM); in the assay with PCresistant S. aureus, 33 µg/mL (≈ 52.2 µM); in assay [1] it was 0.15 µg/mL (≈ 0.237 µM); in assay [2] (setting [9]) it was 0.31 µg/mL (≈ 0.491 µM); in assay [3], 25 µg/mL (≈ 39.6 µM). Also, the MIC came to 0.15 µg/mL (≈ 0.237 µM) in [4], 0.057 µg/mL (≈ 0.0902 µM) in [5] (setting [8]), 0.18 µg/mL (≈ 0.285 µM) in [6] and 0.044 µg/mL (≈ 0.0697 µM) in assay [7].

With `CC(C)(O/N=C(\C(=O)N[C@@H]1C(=O)N2C(C(=O)[O-])=C(C[n+]3ccccc3)CS[C@H]12)c1csc(N)n1)C(=O)O` [ceftazidime, reference compound], the MIC with X. moltophilia was determined as 71 µg/mL (≈ 130 µM); in the assay with P. cepacia it was 18 µg/mL (≈ 32.9 µM); in the assay with PCresistant S. aureus it was 12.5 µg/mL (≈ 22.9 µM); in [1], 0.3 µg/mL (≈ 0.549 µM); in assay [2] (setting [9]), 14 µg/mL (≈ 25.6 µM); in [3], 6.3 µg/mL (≈ 11.5 µM). Also, the MIC in assay [4] is 0.91 µg/mL (≈ 1.66 µM); in assay [5], 1.2 µg/mL (≈ 2.2 µM); in assay [6], 65 µg/mL (≈ 119 µM); in assay [7], 0.17 µg/mL (≈ 0.311 µM).

(Values after patent US5194433A, “Antibiotic C-3 catechol-substituted cephalosporin compounds, compositions and method of use thereof” (Bristol-Myers Squibb Company, priority 1990, dated 1993).)
